Data set [1] can be described thus: Solubility check: solubility of coloring compound in chloroform at room temperature. It is filed as physicochemical. On the procedure: A solubility test was performed to measure the solubility of a coloring compound in chloroform at room temperature. The solubility was evaluated as described below.
A: 5% or more solubility in chloroform
B: 1% or more and less than 5% solubility in chloroform
C: less than 1% solubility in chloroform
A solubility of 1% or more in chloroform was determined to indicate high compatibility with resin.

Data set [2] is described as follows: Light resistance evaluation of coloring compound on paper, Sun Tester irradiation (color difference ΔE). It counts as physicochemical. The conditions noted are these: 765 w/m^2, 50° C., irradiation time 20 hours, on CLC color copy paper. As for the experimental part:
A coloring compound was dissolved in tetrahydrofuran/cyclohexanone (=1/1 (v/v)) to prepare a 0.04 mol/L solution, which was then filtered with a filter (Φ0.2 μm). The prepared coloring compound solution was applied on CLC color copy paper (manufactured by Canon Inc.) by a bar coat method (Bar No. 3) and air-dried overnight. The test paper was then subjected to an irradiation experiment using Sun Tester (XF-180CPS, manufactured by Shimadzu Corporation) under the conditions of an illuminance of 765 w/m^2, a temperature of 50° C. and an irradiation time of 20 hours. The test paper before and after irradiation was analyzed by means of SpectroLino (from Gretag Machbeth). Optical density and chromaticity (L*, a*, b*) were determined on the basis of the L*a*b* color system. Color difference (ΔE) was calculated according to the following equation on the basis of measurements of the color characteristics.
The evaluation was performed as below.
A: The ΔE value is less than 10.
B: The ΔE value is 10 or more and less than 20.
C: The ΔE value is 20 or more.
The ΔE value of less than 20 was determined to indicate good light resistance.

The source of these data is patent publication US8211606B2, “Coloring compound, yellow toner, sheet for heat-sensitive transfer recording, and ink” (Canon Kabushiki Kaisha, priority 2007, dated 2012).

SMILES strings stand for the structures.

Turning to `CCCCC(CC)Cn1c(O)c(N=Nc2ccccc2[N+](=O)[O-])c(C)c(C(=O)NC2CCCC2)c1=O` (stereo not shown) [(17)], the Solubility result in data set [1] is “A (5% or more solubility in chloroform)”. Further, in data set [2], the “Light Resistance” value was “B (The ΔE value is 10 or more and less than 20.)”.
As for `Cc1c(N=Nc2ccccc2[N+](=O)[O-])c(O)n(-c2ccccc2)c(=O)c1C(N)=O` [(15)], the Solubility result in data set [1] was “B (1% or more and less than 5% solubility in chloroform)”. For the same compound, in data set [2], the “Light Resistance” value is on record as “A (The ΔE value is less than 10.)”.
Take `CCCCC(CC)Cn1c(O)c(N=Nc2ccc(C(F)(F)F)cc2[N+](=O)[O-])c(C)c(C(=O)NCc2ccccc2)c1=O` (stereo not shown) [(18)]: the Solubility entry in data set [1] is “A (5% or more solubility in chloroform)”. Besides, the “Light Resistance” value in data set [2] is “B (The ΔE value is 10 or more and less than 20.)”.
For the compound `CCCCC(CC)Cn1c(O)c(N=Nc2c([N+](=O)[O-])cc(C(F)(F)F)cc2[N+](=O)[O-])c(C)c(C(N)=O)c1=O` (stereo not shown) [(9)], in data set [1], the Solubility entry was “B (1% or more and less than 5% solubility in chloroform)”. Moreover, the “Light Resistance” value in data set [2] is “B (The ΔE value is 10 or more and less than 20.)”.
In the case of `CCCCC(CC)Cn1c(O)c(N=Nc2c(Br)cc(C(F)(F)F)cc2[N+](=O)[O-])c(C)c(C(N)=O)c1=O` (stereo not shown) [(10)], the Solubility result in data set [1] was “B (1% or more and less than 5% solubility in chloroform)”. Besides, the “Light Resistance” value in data set [2] is recorded as “A (The ΔE value is less than 10.)”.
Consider `CCCCC(CC)Cn1c(O)c(N=Nc2ccc(C#N)cc2[N+](=O)[O-])c(C)c(C(N)=O)c1=O` (stereo not shown) [(11)], for which the Solubility result in data set [1] is “A (5% or more solubility in chloroform)”. In addition, the “Light Resistance” value in data set [2] was “A (The ΔE value is less than 10.)”.
Take `CCCCC(CC)Cn1c(O)c(/N=N/c2ccccc2[N+](=O)[O-])c(C)c(C(N)=O)c1=O` (stereo not shown) [Compound (4)]: in data set [1], the Solubility result was “B (1% or more and less than 5% solubility in chloroform)”. Besides, the “Light Resistance” value in data set [2] was “A (The ΔE value is less than 10.)”.
For the compound `Cc1c(N=Nc2ccccc2[N+](=O)[O-])c(O)n(Cc2ccccc2)c(=O)c1C(N)=O` [(16)], the Solubility result in data set [1] is “B (1% or more and less than 5% solubility in chloroform)”. The “Light Resistance” value in data set [2] is listed as “A (The ΔE value is less than 10.)”.
On to `CCn1c(O)c(N=Nc2ccc(C(F)(F)F)cc2[N+](=O)[O-])c(-c2ccccc2)c(C(=O)NC(C)(C)C)c1=O` [(13)], for which the Solubility entry in data set [1] was “A (5% or more solubility in chloroform)”. Also, in data set [2], the “Light Resistance” value was “B (The ΔE value is 10 or more and less than 20.)”.
`CCCCC(CC)Cn1c(O)c(/N=N/c2ccccc2[N+](=O)[O-])c(C)c(C#N)c1=O` (stereo not shown) [Comparative Compound (1), reference compound]: the Solubility result in data set [1] is “B (1% or more and less than 5% solubility in chloroform)”. The “Light Resistance” value in data set [2] is recorded as “C (The ΔE value is 20 or more.)”.
As to `CCCCC(CC)Cn1c(O)c(N=Nc2ccc(C(F)(F)F)cc2[N+](=O)[O-])c(C)c(C(N)=O)c1=O` (stereo not shown) [(12)], the Solubility result in data set [1] is on record as “A (5% or more solubility in chloroform)”. For the same compound, the “Light Resistance” value in data set [2] is given as “A (The ΔE value is less than 10.)”.
Taken in the same sequence, the figures for `CCCCC(CC)Cn1c(O)c(/N=N/c2ccc(C(F)(F)F)cc2[N+](=O)[O-])c(C)c(C(=O)NC(C)(C)C)c1=O` (stereo not shown) [Compound (5)] were “A (5% or more solubility in chloroform)” and “A (The ΔE value is less than 10.)”.
As to `CCCCC(CC)Cn1c(O)c(N=Nc2c([N+](=O)[O-])cc(F)c(F)c2F)c(C)c(C(N)=O)c1=O` (stereo not shown) [(8)], in data set [1], the Solubility entry was “A (5% or more solubility in chloroform)”. The “Light Resistance” value in data set [2] was “B (The ΔE value is 10 or more and less than 20.)”.
`CCCCC(CC)Cn1c(O)c(N=Nc2cc(F)c(F)cc2[N+](=O)[O-])c(C)c(C(N)=O)c1=O` (stereo not shown) [(7)]: the Solubility result in data set [1] is “A (5% or more solubility in chloroform)”. Moreover, the “Light Resistance” value in data set [2] was “B (The ΔE value is 10 or more and less than 20.)”.
With `CCCCC(CC)Cn1c(O)c(/N=N/c2ccc(F)cc2[N+](=O)[O-])c(C)c(C(N)=O)c1=O` (stereo not shown) [Compound (6)], the Solubility entry in data set [1] is “B (1% or more and less than 5% solubility in chloroform)”. The “Light Resistance” value in data set [2] is recorded as “A (The ΔE value is less than 10.)”.
For `CCCCC(C)(CC)NC(=O)c1c(C)c(N=Nc2ccc(C(F)(F)F)cc2[N+](=O)[O-])c(O)[nH]c1=O` (stereo not shown) [(14)], in data set [1], the Solubility result was “B (1% or more and less than 5% solubility in chloroform)”. Besides, the “Light Resistance” value in data set [2] is on record as “A (The ΔE value is less than 10.)”.
On to `CCn1c(O)c(/N=N/c2ccccc2[N+](=O)[O-])c(C)c(C(N)=O)c1=O` [(2), reference compound], for which, in data set [1], the Solubility result was “C (less than 1% solubility in chloroform)”. Besides, the “Light Resistance” value in data set [2] was “C (The ΔE value is 20 or more.)”.
